Source: ChEMBL document CHEMBL1201862, “PubChem BioAssay data set” (2004)
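96-well plates; 48 h exposure; 5 concentrations. Endpoints by linear interpolation between flanking doses. Not reached: highest tested concentration assigned. Abbreviation: GI50, concentration required for 50% inhibition of growth.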 Calls of active or inactive are those of the source. Rule as the data show it: active = GI50 up to about 1.1 µM and inactive = higher.

Tests used:
Test in all cases: growth of human tumour cells (NCI), 48 h
UACC-257 = test system: UACC-257
MDA-MB-435 = test system: MDA-MB-435
PC-3 = test system: PC-3
LOX IMVI = test system: LOX IMVI
MDA-N = test system: MDA-N
SN12C = test system: SN12C
SNB-19 = test system: SNB-19
MCF7 = test system: MCF7
786-0 = test system: 786-0
T47D = test system: T47D
HT-29 = test system: HT-29
MDA-MB-231 = test system: MDA-MB-231
A549 = test system: A549
SK-MEL-2 = test system: SK-MEL-2
EKVX = test system: EKVX
NCI/ADR-RES = test system: NCI/ADR-RES
Hs-578T = test system: Hs-578T
RXF 393 = test system: RXF 393

SMILES	GI50 (UACC-257)	GI50 (MDA-MB-435)	GI50 (PC-3)	GI50 (LOX IMVI)	GI50 (MDA-N)	GI50 (SN12C)	GI50 (SNB-19)	GI50 (MCF7)	GI50 (786-0)	GI50 (T47D)	GI50 (HT-29)	GI50 (MDA-MB-231)	GI50 (A549)	GI50 (SK-MEL-2)	GI50 (EKVX)	GI50 (NCI/ADR-RES)	GI50 (Hs-578T)	GI50 (RXF 393)
CCOC(=O)C(NC(=O)c1ccccc1)(N1CCOCC1)C(F)(F)F (centres undefined)	> 100 µM (inactive)	> 100 µM (inactive)	> 100 µM (inactive)	> 100 µM (inactive)	> 100 µM (inactive)	> 100 µM (inactive)	> 100 µM (inactive)	> 100 µM (inactive)	> 100 µM (inactive)	> 100 µM (inactive)	> 100 µM (inactive)	> 100 µM (inactive)	> 100 µM (inactive)	> 100 µM (inactive)	> 100 µM (inactive)	> 100 µM (inactive)	> 100 µM (inactive)	> 100 µM (inactive)
CC(C)(C)OC(=O)N(O)CCCn1cnc2c(N)ncnc21	> 100 µM (inactive)	> 100 µM (inactive)	> 100 µM (inactive)	> 100 µM (inactive)	> 100 µM (inactive)	> 100 µM (inactive)	> 100 µM (inactive)	> 100 µM (inactive)	> 100 µM (inactive)	> 100 µM (inactive)	> 100 µM (inactive)	> 100 µM (inactive)	> 100 µM (inactive)	> 100 µM (inactive)	> 100 µM (inactive)	> 100 µM (inactive)	> 100 µM (inactive)	> 100 µM (inactive)
CCN(CC)CCNC(=O)c1cn2c(ccc3sc4ccccc4c(=O)c32)n1	14.3 µM (inactive)	16.7 µM (inactive)	10.8 µM (inactive)	9.18 µM (inactive)	14.1 µM (inactive)	9.33 µM (inactive)	11.5 µM (inactive)	5.87 µM (inactive)	4.1 µM (inactive)	14.5 µM (inactive)	6.89 µM (inactive)	8.95 µM (inactive)	4.36 µM (inactive)	21 µM (inactive)	14.6 µM (inactive)	11.2 µM (inactive)	15.3 µM (inactive)	8.22 µM (inactive)
C#CCn1c(=O)c2cc(OC)c(OC)cc2n(CC#C)c1=O	> 10 µM (inactive)	> 10 µM (inactive)	> 10 µM (inactive)	> 10 µM (inactive)	> 10 µM (inactive)	> 10 µM (inactive)	> 10 µM (inactive)	> 10 µM (inactive)	> 10 µM (inactive)	> 10 µM (inactive)	> 10 µM (inactive)	> 10 µM (inactive)	> 10 µM (inactive)	> 10 µM (inactive)	> 10 µM (inactive)	> 10 µM (inactive)	> 10 µM (inactive)	> 10 µM (inactive)
C=C1C(=O)OC2CC1C(OC(=O)/C=C/c1ccccc1)C/C(C)=C/CC/C(C)=C/CCC2(C)O (centres undefined)	1.87 µM (inactive)	1.46 µM (inactive)	1.63 µM (inactive)	0.828 µM (active)	1.38 µM (inactive)	1.57 µM (inactive)	1.89 µM (inactive)	0.714 µM (active)	1.31 µM (inactive)	3.47 µM (inactive)	1.33 µM (inactive)	1.66 µM (inactive)	1.71 µM (inactive)	1.48 µM (inactive)	1.81 µM (inactive)	1.74 µM (inactive)	2.19 µM (inactive)	1.34 µM (inactive)
O=C(N/N=C/c1ccc([N+](=O)[O-])cc1)c1cccc2nc3ccccc3nc12	> 100 µM (inactive)	> 100 µM (inactive)	> 75.9 µM (inactive)	> 85.5 µM (inactive)	> 100 µM (inactive)	> 100 µM (inactive)	> 55.8 µM (inactive)	> 100 µM (inactive)	> 100 µM (inactive)	> 100 µM (inactive)	> 100 µM (inactive)	> 70.3 µM (inactive)	1.24 µM (inactive)	> 100 µM (inactive)	> 100 µM (inactive)	> 100 µM (inactive)	9.75 µM (inactive)	33.3 µM (inactive)
Cc1ccc(O)c(C(c2cccc(C(c3cc(C)ccc3O)c3cc(C)ccc3O)c2)c2cc(C)ccc2O)c1	1.94 µM (inactive)	1.75 µM (inactive)	1.77 µM (inactive)	1.54 µM (inactive)	1.79 µM (inactive)	1.83 µM (inactive)	1.89 µM (inactive)	1.58 µM (inactive)	1.69 µM (inactive)	1.98 µM (inactive)	1.66 µM (inactive)	1.25 µM (inactive)	1.97 µM (inactive)	2.1 µM (inactive)	1.82 µM (inactive)	3.01 µM (inactive)	1.56 µM (inactive)	1.69 µM (inactive)
O=C(NN=C1NCCCN1)c1ccco1	> 100 µM (inactive)	> 100 µM (inactive)	> 100 µM (inactive)	> 100 µM (inactive)	> 100 µM (inactive)	> 100 µM (inactive)	> 100 µM (inactive)	> 100 µM (inactive)	> 100 µM (inactive)	> 100 µM (inactive)	> 100 µM (inactive)	> 100 µM (inactive)	> 100 µM (inactive)	> 100 µM (inactive)	> 100 µM (inactive)	> 100 µM (inactive)	> 100 µM (inactive)	> 100 µM (inactive)
CC1(C)OC[C@@H](C[C@H](O)COCc2ccccc2)O1	> 100 µM (inactive)	> 100 µM (inactive)	> 100 µM (inactive)	> 100 µM (inactive)	> 100 µM (inactive)	> 100 µM (inactive)	> 100 µM (inactive)	> 100 µM (inactive)	> 100 µM (inactive)	> 100 µM (inactive)	> 100 µM (inactive)	> 100 µM (inactive)	> 100 µM (inactive)	> 100 µM (inactive)	> 100 µM (inactive)	> 100 µM (inactive)	> 100 µM (inactive)	> 100 µM (inactive)
OC(C/C(=N\N=C(/CC(O)(C(F)(F)F)C(F)(F)F)c1ccccc1)c1ccccc1)(C(F)(F)F)C(F)(F)F	> 10 µM (inactive)	> 10 µM (inactive)	> 10 µM (inactive)	> 10 µM (inactive)	> 10 µM (inactive)	> 10 µM (inactive)	> 10 µM (inactive)	> 10 µM (inactive)	> 10 µM (inactive)	> 10 µM (inactive)	> 10 µM (inactive)	> 10 µM (inactive)	> 10 µM (inactive)	> 10 µM (inactive)	> 10 µM (inactive)	> 10 µM (inactive)	> 10 µM (inactive)	3.17 µM (inactive)
O=C1C=C(Nc2ccc(Br)cc2)c2ccccc2/C1=N/O	1.58 µM (inactive)	1.83 µM (inactive)	8.47 µM (inactive)	2.18 µM (inactive)	1.89 µM (inactive)	10.6 µM (inactive)	2.5 µM (inactive)	4.16 µM (inactive)	9.73 µM (inactive)	13.6 µM (inactive)	12.1 µM (inactive)	9.75 µM (inactive)	1.98 µM (inactive)	1.5 µM (inactive)	35.5 µM (inactive)	8.67 µM (inactive)	3.2 µM (inactive)	16.4 µM (inactive)
O=C1CSC2(CC(/C=C/c3ccccc3[N+](=O)[O-])=NN2c2cccc(S(=O)(=O)O)c2)N1c1nc2ccccc2s1 (centres undefined)	37.2 µM (inactive)	14.8 µM (inactive)	15.3 µM (inactive)	16.4 µM (inactive)	17.9 µM (inactive)	20.3 µM (inactive)	15.5 µM (inactive)	12.5 µM (inactive)	12.3 µM (inactive)	12.8 µM (inactive)	23.8 µM (inactive)	15.9 µM (inactive)	18.7 µM (inactive)	15.2 µM (inactive)	32.3 µM (inactive)	21.5 µM (inactive)	22.3 µM (inactive)	23.8 µM (inactive)
COc1ccc(OC)c([N+](=O)[O-])c1-c1nc2sccn2c1/C=N/N=C(N)N	69.5 µM (inactive)	52.7 µM (inactive)	53 µM (inactive)	36.9 µM (inactive)	49.8 µM (inactive)	> 100 µM (inactive)	> 100 µM (inactive)	21.5 µM (inactive)	> 100 µM (inactive)	66.1 µM (inactive)	63.8 µM (inactive)	48.6 µM (inactive)	> 100 µM (inactive)	33.3 µM (inactive)	> 100 µM (inactive)	> 100 µM (inactive)	26.7 µM (inactive)	> 100 µM (inactive)
C[N+](CCCl)(CCCl)Cc1cccc2cccc([N+](=O)[O-])c12	37.2 µM (inactive)	> 100 µM (inactive)	85.3 µM (inactive)	48.1 µM (inactive)	> 100 µM (inactive)	45.5 µM (inactive)	75.2 µM (inactive)	38.2 µM (inactive)	> 100 µM (inactive)	42.7 µM (inactive)	55.8 µM (inactive)	> 100 µM (inactive)	97.3 µM (inactive)	> 100 µM (inactive)	> 100 µM (inactive)	> 100 µM (inactive)	> 100 µM (inactive)	> 100 µM (inactive)
CCOC(=O)c1cc(C2CCN(CC(C)CC)C2=S)c(C(=O)/C=C(/C)N)[nH]1 (centres undefined)	> 50 µM (inactive)	> 50 µM (inactive)	> 50 µM (inactive)	> 50 µM (inactive)	> 50 µM (inactive)	> 50 µM (inactive)	> 50 µM (inactive)	> 50 µM (inactive)	> 50 µM (inactive)	> 50 µM (inactive)	> 50 µM (inactive)	> 50 µM (inactive)	–	> 50 µM (inactive)	> 50 µM (inactive)	> 50 µM (inactive)	> 50 µM (inactive)	> 50 µM (inactive)
